Reference: ChEMBL document CHEMBL5532652, “Design and synthesis of pterostilbene derivatives bearing triazole moiety that might treat DSS-induced colitis in mice through modulation of NF-κB/MAPK signaling pathways” (Eur J Med Chem, 2024)

Experiments:
RAW264.7 [1] = test: Cytotoxicity against mouse RAW264.7 cells assessed as reduction in cell viability at 20 uM incubated for 24 hrs by MTT assay; assay type: toxicity, cell-based; conditions: raw264.7, 24 h
RAW264.7 [2] = test: Anti-inflammatory activity in mouse RAW264.7 cells assessed as inhibition of LPS-induced NO production at 10 uM incubated pretreated with compound for 1 hr followed by LPS-induction and measured after 24 hrs by Griess reagent based assay relative to control; assay type: functional; conditions: time 25 hrs
RAW264.7 [3] = test: Anti-inflammatory activity in mouse RAW264.7 cells assessed as inhibition of LPS-induced NO production incubated pretreated with compound for 1 hr followed by LPS-induction and measured after 24 hrs by Griess reagent based assay; assay type: functional, cell-based
[4] = Cytotoxicity against mouse RAW264.7 cells assessed as reduction in cell viability at 20 uM incubated for 24 hrs in absence of LPS by MTT assay; assay type: toxicity, cell-based
[5] = Cytotoxicity against mouse RAW264.7 cells assessed as reduction in cell viability at 20 uM incubated for 24 hrs in presence of LPS by MTT assay; assay type: toxicity, cell-based
[6] = Toxicity in C57BL/6 mouse assessed as body weight loss at 200 mg/kg, po measured for 7 days; assay type: organism-based; conditions: in vivo, 168 h, time 7 day

| SMILES | IC50 (RAW264.7 [3]) [µM] | Activity (RAW264.7 [1]) | inhibition at 10 µM (RAW264.7 [2]) [%] | IC50 at 24 h [4] [µM] | IC50 at 24 h [5] [µM] | Activity [6] |
| --- | --- | --- | --- | --- | --- | --- |
| COc1cc(/C=C/c2ccc(OCc3ccc(C)cc3)cc2)c(-c2cnn[nH]2)c(OC)c1 |  | Non-Toxic |  |  |  |  |
| COc1cc(/C=C/c2ccc(OCc3ccc(OC(F)(F)F)cc3)cc2)c(-c2cnn[nH]2)c(OC)c1 |  | Non-Toxic |  |  |  |  |
| CCOC(=O)COc1ccc(/C=C/c2cc(OC)cc(OC)c2-c2cnn[nH]2)cc1 |  | Non-Toxic |  |  |  |  |
| COc1cc(/C=C/c2ccc(OCCc3ccccc3)cc2)c(-c2cnn[nH]2)c(OC)c1 |  | Non-Toxic |  |  |  |  |
| O=C(O)c1cc(/N=N/c2ccc(S(=O)(=O)Nc3ccccn3)cc2)ccc1O [SULFASALAZINE] |  |  |  |  |  | Non-Toxic |
| COc1cc(/C=C/c2ccc(OCc3cc(F)cc(F)c3)cc2)c(-c2cnn[nH]2)c(OC)c1 |  | Non-Toxic |  |  |  |  |
| COc1ccc(/C=C/c2cc(OC)cc(OC)c2-c2cnn[nH]2)cc1 |  | Non-Toxic |  |  |  |  |
| CCCCOc1ccc(/C=C/c2cc(OC)cc(OC)c2-c2cnn[nH]2)cc1 |  | Non-Toxic |  |  |  |  |
| C=C(C)COc1ccc(/C=C/c2cc(OC)cc(OC)c2-c2cnn[nH]2)cc1 | 7.15 | Non-Toxic | 74.2 | > 50 | > 50 |  |
| CCOc1ccc(/C=C/c2cc(OC)cc(OC)c2-c2cnn[nH]2)cc1 |  | Non-Toxic |  |  |  |  |
| CCOCCOc1ccc(/C=C/c2cc(OC)cc(OC)c2-c2cnn[nH]2)cc1 |  | Non-Toxic |  |  |  |  |
| COCCCCOc1ccc(/C=C/c2cc(OC)cc(OC)c2-c2cnn[nH]2)cc1 |  | Non-Toxic |  |  |  |  |
| C=CCCCOc1ccc(/C=C/c2cc(OC)cc(OC)c2-c2cnn[nH]2)cc1 | 6.18 | Non-Toxic | 62.2 | > 50 | > 50 |  |
| COc1cc(/C=C/c2ccc(OC(=O)N(C)C)cc2)c(-c2cnn[nH]2)c(OC)c1 |  | Non-Toxic |  |  |  |  |
| C=CCOc1ccc(/C=C/c2cc(OC)cc(OC)c2-c2cnn[nH]2)cc1 | 10.8 | Non-Toxic | 53.7 | > 50 | > 50 |  |
| COc1cc(/C=C/c2ccc(OCc3ccc(Br)cc3)cc2)c(-c2cnn[nH]2)c(OC)c1 |  | Non-Toxic |  |  |  |  |
| COc1cc(/C=C/c2ccc(OCC3CCCC3)cc2)c(-c2cnn[nH]2)c(OC)c1 |  | Non-Toxic |  |  |  |  |
| COc1cc(/C=C/c2ccc(OCC3CC3)cc2)c(-c2cnn[nH]2)c(OC)c1 |  | Non-Toxic |  |  |  |  |

The next lines start with results.

| IC50 (RAW264.7 [3]) [µM] | SMILES | Activity (RAW264.7 [1]) | inhibition at 10 µM (RAW264.7 [2]) [%] | IC50 at 24 h [4] [µM] | IC50 at 24 h [5] [µM] | Activity [6] |
| --- | --- | --- | --- | --- | --- | --- |
| 2 | C=CCCCOc1ccc(/C=C/c2cc(OC)cc(OC)c2-c2cnnn2C(=O)NCCCl)cc1 |  | 85.9 | > 50 | > 50 |  |
| 1.4 | C=CCCOc1ccc(/C=C/c2cc(OC)cc(OC)c2-c2cnnn2C(=O)NCCCl)cc1 |  | 96.9 | > 50 | > 50 |  |
| 15.2 | C=C(C)COc1ccc(/C=C/c2cc(OC)cc(OC)c2-c2cnnn2C(=O)NCC)cc1 |  | 43.6 | > 50 | > 50 |  |
| 12.8 | C=C(C)COc1ccc(/C=C/c2cc(OC)cc(OC)c2-c2cnnn2C(=O)NCCCC)cc1 |  | 54.6 | > 50 | > 50 |  |
| 10.4 | C=CCCOc1ccc(/C=C/c2cc(OC)cc(OC)c2-c2cnnn2C(=O)NCCCC)cc1 |  | 50.6 | > 50 | > 50 |  |
| 6.2 | C=C(C)COc1ccc(/C=C/c2cc(OC)cc(OC)c2-c2cnnn2C(=O)NCCC)cc1 |  | 77.5 | > 50 | > 50 |  |
| 3.15 | C=CCCOc1ccc(/C=C/c2cc(OC)cc(OC)c2-c2cnnn2C(=O)NCCC)cc1 |  | 72.7 | > 50 | > 50 |  |
| 14.9 | C=C(C)COc1ccc(/C=C/c2cc(OC)cc(OC)c2-c2cnnn2C(=O)NCCc2ccccc2)cc1 |  | 42.6 | > 50 | > 50 |  |
| 6.5 | C=CCCCOc1ccc(/C=C/c2cc(OC)cc(OC)c2-c2cnnn2C(=O)NCCc2ccccc2)cc1 |  | 67.8 | > 50 | > 50 |  |
| 9.46 | C=CCCOc1ccc(/C=C/c2cc(OC)cc(OC)c2-c2cnnn2C(=O)NCCc2ccccc2)cc1 |  | 64.6 | > 50 | > 50 |  |
| 12.3 | C=CCCCOc1ccc(/C=C/c2cc(OC)cc(OC)c2-c2cnnn2C(=O)NCC)cc1 |  | 49.6 | > 50 | > 50 |  |
| 2.6 | C=CCOc1ccc(/C=C/c2cc(OC)cc(OC)c2-c2cnnn2C(=O)NCCC)cc1 |  | 81.1 | > 50 | > 50 |  |
| 14.4 | C=CCCOc1ccc(/C=C/c2cc(OC)cc(OC)c2-c2cnn[nH]2)cc1 | Non-Toxic | 46.9 | > 50 | > 50 |  |
| 11.7 | C=CCOc1ccc(/C=C/c2cc(OC)cc(OC)c2-c2cnnn2C(=O)NCCCC)cc1 |  | 50 | > 50 | > 50 |  |
| 14 | C=CCOc1ccc(/C=C/c2cc(OC)cc(OC)c2-c2cnnn2C(=O)NCCc2ccccc2)cc1 |  | 45.3 | > 50 | > 50 |  |
| 8 | C=CCOc1ccc(/C=C/c2cc(OC)cc(OC)c2-c2cnnn2C(=O)NC(C)C)cc1 |  | 75 | > 50 | > 50 |  |
| 8.66 | C=CCCCOc1ccc(/C=C/c2cc(OC)cc(OC)c2-c2cnnn2C(=O)NCCCC)cc1 |  | 60 | > 50 | > 50 |  |
| 7.91 | C=CCCOc1ccc(/C=C/c2cc(OC)cc(OC)c2-c2cnnn2C(=O)NC(C)C)cc1 |  | 61.3 | > 50 | > 50 |  |
| 13.4 | C=CCCOc1ccc(/C=C/c2cc(OC)cc(OC)c2-c2cnnn2C(=O)NCC)cc1 |  | 46.3 | > 50 | > 50 |  |
| 9.83 | C=CCCCOc1ccc(/C=C/c2cc(OC)cc(OC)c2-c2cnnn2C(=O)NC(C)C)cc1 |  | 53.4 | > 50 | > 50 |  |
| 16 | C=C(C)COc1ccc(/C=C/c2cc(OC)cc(OC)c2-c2cnnn2C(=O)NC(C)C)cc1 |  | 48.2 | > 50 | > 50 |  |
| 6.2 | C=CCCCOc1ccc(/C=C/c2cc(OC)cc(OC)c2-c2cnnn2C(=O)NCCC)cc1 |  | 55.5 | > 50 | > 50 |  |
| 8.16 | C=CCOc1ccc(/C=C/c2cc(OC)cc(OC)c2-c2cnnn2C(=O)NCC)cc1 |  | 67.3 | > 50 | > 50 |  |
